Results on 40 compounds are retold here after patent US9624215B2, “Amine derivative or salt thereof” (TOYAMA CHEMICAL CO., LTD., priority 2012, dated 2017).

This experiment concerns normal human neonatal foreskin epidermal keratinocytes (NHEK-F). Nature of the experiment: Cell proliferation inhibition test. The format is cell-based. To be noted: Keratinocyte, 72 h, NHEK-F cells, three days incubation, ATPlite or CellTiterGlo, read-out: IC50 (concentration of the compound at which the cell count is reduced by 50%). As to the method:
2×10^3 normal human neonatal foreskin epidermal keratinocytes (NHEK-F) (Kurabo, KK-4009) were suspended in 100 μL of Humedia-EG2 (Kurabo, KK-2150S) medium, plated in a 96-well plate and incubated overnight. The test compound was added on the following day and the cells were incubated for further three days. The cell count was determined using ATPlite (PerkinElmer, 6016739) or CellTiterGlo (Promega, G7573).
The inhibition rate was calculated from the following formula to determine the concentration of the compound at which the cell count is reduced by 50% (IC50). Inhibition rate (%)=100−(cell count in the presence of test compound/cell count in the absence of test compound)×100
For orientation: In ATP-based viability assays light output follows the ATP content of the culture.

Regarding `O=C(O)c1cc(C2CC2)cnc1Nc1cccc2c1ccc(=O)n2-c1ccccc1` [Example 401, 5-cyclopropyl-2-((2-oxo-1-phenyl-1,2-dihydroquinolin-5-yl)amino)nicotinic acid], the IC50 lay in the range of 100 to 1000 nM. Regarding `O=C(O)c1cc(Cl)ccc1Nc1cccc2c1ccn2Cc1ccccc1` [Example 6, 2-((1-benzyl-1H-indol-4-yl)amino)-5-chlorobenzoic acid], the IC50 fell in the range of 10 to 100 nM. With `CCCCCn1ccc2cc(Nc3ncc(C4CC4)cc3C(=O)O)cc(CCCOC)c21` [Example 610, 5-cyclopropyl-2-((7-(3-methoxypropyl)-1-pentyl-1H-indol-5-yl)amino)nicotinic acid], the IC50 is no more than 10 nM. Consider `CCn1cc(-c2ccccc2)c2cc(Nc3ncc(C4CC4)cc3C(=O)O)ccc21` [Example 170, 5-cyclopropyl-2-((1-ethyl-3-phenyl-1H-indol-5-yl)amino)nicotinic acid], for which the IC50 was in the range of 10 to 100 nM. Consider `O=C(O)c1cc(C2CC2)cnc1Nc1cccc2c(-c3ccccc3)ccnc12` [Example 187, 5-cyclopropyl-2-((4-phenylquinolin-8-yl)amino)nicotinic acid], for which the IC50 is no more than 10 nM. Regarding `Cn1ccc2cc(Nc3ncc(C4CC4)cc3C(=O)O)cc(-c3cccc(Cl)c3)c21` [Example 489, 2-((7-(3-chlorophenyl)-1-methyl-1H-indol-5-yl)amino)-5-cyclopropylnicotinic acid], the IC50 was no more than 10 nM. For the compound `COC/C=C/c1cccc(Cn2ccc3cc(Nc4ncc(C5CC5)cc4C(=O)O)ccc32)c1` [Example 508, (E)-5-cyclopropyl-2-((1-(3-(3-methoxyprop-1-en-1-yl)benzyl)-1H-indol-5-yl)amino)nicotinic acid], the IC50 is no more than 10 nM. For the compound `O=C(O)c1cc(Cl)ccc1Nc1ccc2c(ccn2-c2cnc3ccccc3c2)c1` [Example 317, 5-chloro-2-((1-(quinolin-3-yl)-1H-indol-5-yl)amino)benzoic acid], the IC50 is no more than 10 nM. Regarding `CCc1cnc(Nc2ccc3c(ccn3Cc3ccccc3)c2)c(C(=O)O)c1` [Example 381, 2-((1-benzyl-1H-indol-5-yl)amino)-5-ethylnicotinic acid], the IC50 lay in the range of 10 to 100 nM.

For `Cn1ccc2cc(Nc3ncc(C4CC4)cc3C(=O)O)cc(CCC3CCCCC3)c21` [Example 593, 2-((7-(2-cyclohexylethyl)-1-methyl-1H-indol-5-yl)amino)-5-cyclopropylnicotinic acid], the IC50 was no more than 10 nM. For `O=C(O)c1cc(C2CC2)cnc1Nc1cccc2c1ccn2-c1ccccc1` [Example 433, 5-cyclopropyl-2-((1-phenyl-1H-indol-4-yl)amino)nicotinic acid], the IC50 was no more than 10 nM. On to `O=C(O)c1cc(C2CC2)cnc1Nc1ccc2c(-c3ccccc3)cn(CC3CC3)c2c1` [Example 45, 5-cyclopropyl-2-((1-(cyclopropylmethyl)-3-phenyl-1H-indol-6-yl)amino)nicotinic acid], for which the IC50 lay within 10 to 100 nM. As to `O=C(O)c1cc(C2CC2)cnc1Nc1ccc2c(c1)CCCN2c1ccccc1` [Example 181, 5-cyclopropyl-2-((1-phenyl-1,2,3,4-tetrahydroquinolin-6-yl)amino)nicotinic acid], the IC50 was no more than 10 nM.

Take `COc1cccc(-c2cn(C)c3ccc(Nc4ncc(C5CC5)cc4C(=O)O)cc23)c1` [Example 577, 5-cyclopropyl-2-((3-(3-methoxyphenyl)-1-methyl-1H-indol-5-yl)amino)nicotinic acid]: the IC50 lay in the range of 100 to 1000 nM. Take `Cn1ccc2cc(Nc3ncc(C4CC4)cc3C(=O)O)cc(-c3ccc(Cl)cc3)c21` [Example 490, 2-((7-(4-chlorophenyl)-1-methyl-1H-indol-5-yl)amino)-5-cyclopropylnicotinic acid]: the IC50 is no more than 10 nM. With `O=C(O)c1cc(C2CC2)cnc1Nc1cccc2ccccc12` [Example 371, 5-cyclopropyl-2-(naphthalen-1-ylamino)nicotinic acid] the figure was 100 to 1000 nM; with `O=C(O)c1cc(C2CC2)cnc1Nc1ccc2c(ccn2CC2CCCCO2)c1` (stereo not shown) [Example 414, 5-cyclopropyl-2-((1-((tetrahydro-2H-pyran-2-yl)methyl)-1H-indol-5-yl)amino)nicotinic acid], 10 to 100 nM; with `CCCn1ccc2c(Nc3ncc(C4CC4)cc3C(=O)O)cccc21` [Example 419, 5-cyclopropyl-2-((1-propyl-1H-indol-4-yl)amino)nicotinic acid], 10 to 100 nM.

In the case of `Cn1cc(-c2cccc(F)c2)c2cc(Nc3ncc(C4CC4)cc3C(=O)O)ccc21` [Example 559, 5-Cyclopropyl-2-((3-(3-fluorophenyl)-1-methyl-1H-indol-5-yl)amino)nicotinic acid], the IC50 lay in the range of 10 to 100 nM.

Take `O=C(O)c1cc(Cl)ccc1Nc1ccc2c(ccn2CC2CCCCC2)c1` [Example 257, 5-chloro-2-((1-(cyclohexylmethyl)-1H-indol-5-yl)amino)benzoic acid]: the IC50 was no more than 10 nM. As for `O=C(O)c1cc(C2CC2)cnc1Nc1ccc2[nH]cc(-c3ccccc3)c2c1` [Example 156, 5-cyclopropyl-2-((3-phenyl-1H-indol-5-yl)amino)nicotinic acid], the IC50 lay within 100 to 1000 nM. Regarding `O=C(O)c1cc(C2CC2)cnc1Nc1cc(-c2ccccc2)c2[nH]ccc2c1` [Example 227, 5-cyclopropyl-2-((7-phenyl-1H-indol-5-yl)amino)nicotinic acid], the IC50 was 10 to 100 nM. Turning to `Cc1ccc(-c2cn(C)c3ccc(Nc4ncc(C5CC5)cc4C(=O)O)cc23)cc1` [Example 571, 5-cyclopropyl-2-((1-methyl-3-(4-methylphenyl)-1H-indol-5-yl)amino)nicotinic acid], the IC50 was 10 to 100 nM. As for `Cc1c(Nc2ncc(C3CC3)cc2C(=O)O)ccc2c1ccn2Cc1ccccc1` [Example 573], the IC50 was no more than 10 nM. With `CC(C)c1cnc(Nc2ccc3c(ccn3Cc3ccccc3)c2)c(C(=O)O)c1` [Example 379, 2-((1-benzyl-1H-indol-5-yl)amino)-5-isopropylnicotinic acid], the IC50 lay in the range of 10 to 100 nM.

Consider `Cn1ccc2cc(Nc3ncc(C4CC4)cc3C(=O)O)cc(/C=C/C3CC3)c21` [Example 469, (E)-5-cyclopropyl-2-((7-(2-cyclopropylvinyl)-1-methyl-1H-indol-5-yl)amino)nicotinic acid], for which the IC50 is no more than 10 nM. Regarding `N#Cc1ccccc1Cn1ccc2cc(Nc3ncc(C4CC4)cc3C(=O)O)ccc21` [Example 452, 2-((1-(2-cyanobenzyl)-1H-indol-5-yl)amino)-5-cyclopropylnicotinic acid], the IC50 lay in the range of 10 to 100 nM. In the case of `Cn1ccc2cc(Nc3ncc(C4CC4)cc3C(=O)O)cc(-c3cccc(F)c3F)c21` [Example 587, 5-cyclopropyl-2-((7-(2,3-difluorophenyl)-1-methyl-1H-indol-5-yl)amino)nicotinic acid] it was no more than 10 nM. Take `O=C(O)c1cc(Cl)ccc1Nc1ccc2c(ccn2Cc2cccc(OCc3ccc4ccccc4n3)c2)c1` [Example 249, 5-chloro-2-((1-(3-(quinolin-2-ylmethoxy)benzyl)-1H-indol-5-yl)amino)benzoic acid]: the IC50 was no more than 10 nM. `CC(C)n1ccc2cc(Nc3ncc(C4CC4)cc3C(=O)O)ccc21` [Example 123, 5-cyclopropyl-2-((1-isopropyl-1H-indol-5-yl)amino)nicotinic acid]: the IC50 was in the range of 10 to 100 nM. As to `COCCN(C)c1cccc(Cn2ccc3cc(Nc4ncc(C5CC5)cc4C(=O)O)ccc32)c1` [Example 511, 5-cyclopropyl-2-((1-(3-((2-methoxyethyl)(methyl)amino)benzyl)-1H-indol-5-yl)amino)nicotinic acid], the IC50 was no more than 10 nM. As to `COc1ccc(-c2cn(C)c3ccc(Nc4ncc(C5CC5)cc4C(=O)O)cc23)cc1` [Example 579, 5-cyclopropyl-2-((3-(4-methoxyphenyl)-1-methyl-1H-indol-5-yl)amino)nicotinic acid], the IC50 lay in the range of 100 to 1000 nM.

On to `O=C(O)c1cc(Cl)ccc1Nc1ccc2c(ccn2Cc2cccc(OCCN3CCOCC3)c2)c1` [Example 296, 5-chloro-2-((1-(3-(2-morpholinoethoxyl)benzyl)-1H-indol-5-yl)amino)benzoic acid], for which the IC50 was 10 to 100 nM. For the compound `O=C(O)c1cc(C2CC2)cnc1Nc1cccc2c1ccn2CC1CCCCC1` [Example 429, 2-((1-(cyclohexylmethyl)-1H-indol-4-yl)amino)-5-cyclopropylnicotinic acid], the IC50 was no more than 10 nM. Turning to `O=C(O)c1cc(C2CC2)cnc1Nc1cccc2c(N3CCCCC3)nccc12` [Example 473, 5-cyclopropyl-2-(1-(piperidin-1-yl)isoquinolin-5-ylamino)nicotinic acid], the IC50 was in the range of 10 to 100 nM. In the case of `O=C(O)c1cc(C2CC2)ccc1Nc1ccc2c(ccn2C(=O)c2ccc(Cl)cc2)c1` [Example 204, 2-((1-(4-chlorobenzoyl)-1H-indol-5-yl)amino)-5-cyclopropylbenzoic acid] it was 10 to 100 nM; in that of `O=C(O)c1cc(C2CC2)cnc1Nc1cccc2c(-c3ccccc3)nccc12` [Example 185, 5-cyclopropyl-2-((1-phenylisoquinolin-5-yl)amino)nicotinic acid], no more than 10 nM. `O=C(O)c1cc(C2CC2)cnc1Nc1ccc2c(ccn2Cc2ccncc2)c1` [Example 148, 5-cyclopropyl-2-((1-(pyridin-4-ylmethyl)-1H-indol-5-yl)amino)nicotinic acid]: the IC50 fell in the range of 100 to 1000 nM.

Consider `COc1cnc(Nc2ccc3c(ccn3Cc3ccccc3)c2)c(C(=O)O)c1` [Example 132, 2-((1-benzyl-1H-indol-5-yl)amino)-5-methoxynicotinic acid], for which the IC50 is 10 to 100 nM. In the case of `Cn1ccc2cc(Nc3ncc(C4CC4)cc3C(=O)O)cc(-c3ccc(C(F)(F)F)cc3)c21` [Example 481], the IC50 is no more than 10 nM.
